Assay [1] has as its target T1, hGal3-E165A (Homo sapiens, UniProt P17931, E165A).
T1 construct: the full-length hGal1 (residues 1–135), 3 (residues 1–250); 6xHis (N); made in house; host or cells: Escherichia coli BL21 (DE3)
The assay can be described thus: Biolayer interferometry, LN1/LN2 binding affinity. As to conditions: for Reduction of binding affinity of hGal3-E165A: hGal3-E165A versus wild-type hGal3, from Table 1 Kd BI; for Kd: Biolayer Interferometry at 300 K, steady-state, read-out: Dissociation constant Kd (Kd BI). An excerpt: (§1) Using a standard PCR-based cloning strategy, the coding region of the full-length hGal1 (residues 1–135), 3 (residues 1–250), 7 (residues 1–136) and CRD domain of hGal3 (residues 113–250) were generated and inserted into modified pET-15b (hGal1, hGal3 and hGal3-CRD) or pET-28a (hGal7) vector (Novagen) with in-frame N- and C-terminal 6xHis-tag, respectively. QuikChange mutagenesis method (Agilent Technologies) was applied to replace the corresponding codons of residues Glu165 and Arg186 in full-length hGal3 with Ala codon to allow the expression of mutant proteins hGal3-E165A and hGal3-R186A. All the wild type and mutated proteins were produced in Escherichia coli BL21 (DE3), with 0.5 mM IPTG induction for 16 h at 20 °C. Recombinant proteins were purified by Ni^2+-affinity and size-exclusion chromatography to homogeneity. Purified proteins were then stored in gel-filtration buffer (25 mM Tris-HCl pH8.0, 300 mM NaCl and 5 mM β-mercaptoethanol) and concentrated to ~ 4, 20 and 9 mg/ml as determined by the method of Bradford for both Biolayer interferometry experiments and crystallization trials, respectively.
(§2) Specifically, biotinylated galectins were prepared according to the standard protocol (provided by FortéBio), and adjusted to final concentration of 1 μM in assay buffer condition (50 mM Tris-HCl pH 7.5, 300 mM NaCl and 5 mM β-mercaptoethanol). Biotinylated galectins were then immobilized on Super Streptavidin Biosensors (FortéBio, Inc.), while free streptavidin sites on biosensor were then blocked by incubation with biocytin (10 mg/ml) to avoid non-specific interactions. […] Measurements were followed by 120 sec baseline step, 60 sec association step and 200 sec dissociation step. Baseline and dissociation steps were carried out in assay buffer only. All the data were processed and calculated using Fortebio software and the steady-state K d values were derived from equilibrium responses (S1 Fig) and summarized in Table 1. Two additional parallel Super Streptavidin biosensors were coated with biotinylated galectin and biocytin, separately, and only incubated with assay buffer as double reference controls.
For orientation: Biolayer interferometry detects binding as a change in optical thickness at a sensor tip.

For assay [2], the target named is T2, hGal3-R186A (Homo sapiens, UniProt P17931, R186A).
T2 construct: the full-length hGal1 (residues 1–135), 3 (residues 1–250); 6xHis (N); made in house; host or cells: Escherichia coli BL21 (DE3)
T2 sequence (P17931 whole entry R186A, the tested form may be a part): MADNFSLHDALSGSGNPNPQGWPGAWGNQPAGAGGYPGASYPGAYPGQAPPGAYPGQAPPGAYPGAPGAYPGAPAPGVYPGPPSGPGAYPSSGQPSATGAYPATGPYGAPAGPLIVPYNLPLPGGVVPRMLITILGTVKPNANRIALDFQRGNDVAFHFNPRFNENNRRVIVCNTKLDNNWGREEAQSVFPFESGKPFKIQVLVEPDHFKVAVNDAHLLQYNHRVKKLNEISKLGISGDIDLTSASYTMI
The assay can be described thus: Biolayer interferometry, LN1/LN2 binding affinity. As to conditions: hGal3-R186A mutant.
Source text: as §1, §2

Assay [3] deals with T3, human galectin-1 (hGal1) (Homo sapiens, UniProt P09382).
T3 construct: the full-length hGal1 (residues 1–135); 6xHis (N); made in house; host or cells: Escherichia coli BL21 (DE3)
T3 sequence (P09382 whole entry, the tested form may be a part): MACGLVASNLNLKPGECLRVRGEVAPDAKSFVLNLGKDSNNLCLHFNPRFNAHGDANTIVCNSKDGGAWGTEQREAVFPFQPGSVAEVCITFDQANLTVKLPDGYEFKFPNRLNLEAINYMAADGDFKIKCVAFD
The assay can be described thus: Biolayer interferometry, LN1/LN2 binding affinity. As to conditions: for Kd: Biolayer Interferometry at 300 K, steady-state, read-out: Dissociation constant Kd (Kd BI).
Source text: as §1, §2

Assay [4] deals with T4, human galectin-3 (hGal3, full-length) (Homo sapiens, UniProt P17931).
T4 construct: the full-length hGal1 (residues 1–135), 3 (residues 1–250); 6xHis (N); made in house; host or cells: Escherichia coli BL21 (DE3)
T4 sequence (P17931 whole entry, the tested form may be a part): as the sequence (P17931 whole entry R186A, the tested form may be a part) above, with A186R counted along it
The assay is described as follows: Biolayer interferometry, LN1/LN2 binding affinity. As to conditions: for Kd: Biolayer Interferometry at 300 K, steady-state, read-out: Dissociation constant Kd (Kd BI).
Source text: as §1, §2

Assay [5] concerns the target T5, human galectin-7 (hGal7) (Homo sapiens, UniProt P47929).
T5 construct: 7 (residues 1–136); 6xHis (C); made in house; host or cells: Escherichia coli BL21 (DE3)
The assay can be described thus: Biolayer interferometry, LN1/LN2 binding affinity. As to conditions: for Kd: Biolayer Interferometry at 300 K, steady-state, read-out: Dissociation constant Kd (Kd BI).
Source text: as §1, §2

Assay [6] deals with T3, human galectin-1 (hGal1). The assay is described as follows: Fluorescence polarization (FP)-based competition binding assay. As to conditions: for Kd: fluorescence anisotropy at 277 K, competition with LN2-FITC probe, read-out: Dissociation constant Kd (Kd FP). The procedure: (§3) The measurement of FP-based assay is based on the rotation speed of a fluorophore-containing compound bound to the protein counterpart (e.g. galectins in this study). The fluorophore rotates at a slower rate than when it is unbound, and the resulting fluorescence polarization is higher. In this study we carried out all measurements according to reported procedures. […] All the measurements were conducted in Tris buffer (12.5 mM, pH 7.4) with 200 mM NaCl and 5 mM β-mercaptoethanol at 4 °C. Data plotting, nonlinear regression analysis, and curve construction was done by Prism 5.0 software (GraphPad, San Diego, CA).
(§4) The measured anisotropy value with competitor (Acompetitor) is used to calculate the amount of galectin-bound probe [PG] according to equation:
(§5) [PG]=[(Acompetitor−A0)∕(Amax−A0)]×[P]total.−
On the technique in general: Polarisation of emitted light reports the rotation of a fluorescent probe.

The target in assay [7] is T6, human galectin-3 (hGal3) (Homo sapiens, UniProt P17931).
T6 construct: the full-length hGal1 (residues 1–135), 3 (residues 1–250); 6xHis (N); made in house; host or cells: Escherichia coli BL21 (DE3)
T6 sequence (P17931 whole entry, the tested form may be a part): as the sequence (P17931 whole entry R186A, the tested form may be a part) above, with A186R counted along it
Described as above. As to conditions: for Kd: fluorescence anisotropy at 277 K, competition with LN2-FITC probe, read-out: Dissociation constant Kd (Kd FP). The procedure: as §3, §4, §5

The target of assay [8] is T5, human galectin-7 (hGal7). The assay is described as above. As to conditions: for Kd: fluorescence anisotropy at 277 K, competition with LN2-FITC probe, read-out: Dissociation constant Kd (Kd FP). The procedure: as §3, §4, §5
Assay [9] has as its system hGal1. Details: method as in PMID 12223272. As to conditions: LN1 versus LN2; cited from earlier work.
Assay [10] has as its system CRD domain of hGal3. Details: method as in PMID 12223272. As to conditions: CRD domain used instead of full-length hGal3; LN1 versus LN2; cited from earlier work.
Assay [11] deals with hGal7. Further details: method as in PMID 12223272. As to conditions: cited from earlier work.
Assay [12] has as its system rat galectin-2. Further details: method as in PMID 12223272. As to conditions: cited from earlier work.
In assay [13] the test system is hGal1. Details: method as in PMID 23124203. As to conditions: in the presence of λ5-UR peptide of pre-BCR; cited from earlier work.
For assay [14], the system named is hGal3. Further details: method as in PMID 21949831. As to conditions: cited from earlier work.
Assay [15] has as its system hGal1. Details: method as in PMID 21949831. As to conditions: cited from earlier work.
Where [16] appears, read: based on Kd BI values, LN1 versus LN2.
Where [17] appears, read: based on Kd FP values, LN1 versus LN2.

Where “and” joins values, the source holds several entries; their conditions need not be identical. Equal entries are not always repeated.

As usually defined, the Kd is a measure of binding affinity in units of concentration.

T5 sequence (P47929 whole entry, the tested form may be a part): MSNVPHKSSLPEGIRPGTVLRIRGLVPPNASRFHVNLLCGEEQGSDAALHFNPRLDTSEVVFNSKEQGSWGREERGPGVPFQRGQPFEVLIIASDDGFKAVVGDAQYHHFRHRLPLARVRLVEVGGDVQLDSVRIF
T1 sequence (P17931 whole entry E165A, the tested form may be a part): as the sequence (P17931 whole entry R186A, the tested form may be a part) above, with E165A, A186R counted along it

Regarding `CC(=O)NC1C(O)OC(CO)C(O)C1OC1OC(CO)C(O)C(O)C1O` (stereo not shown) [LN1, Galβ1-3GlcNAc], the “Reduction of binding affinity of hGal3-E165A” value in assay [1] was 2.5 fold. For the same compound, the Kd was 230 µM in assay [1] (hGal3-E165A); ~340 µM and 340 µM in assay [3]; ~93 µM and 93 µM in assay [4]; ~270 µM and 270 µM in assay [5]; 6.74 µM in assay [6]; 1.44 µM in assay [7]. The Kd in assay [8] is 6.6 µM and 6.63 µM. Moreover, the “LN1/LN2 ratio (Kd LN1/Kd LN2)” value in assay [1] (hGal3-E165A, based on Kd BI values, LN1 versus LN2) is 1.22 and 1.22 ^2; in assay [3] (setting [16]) it was 0.44; in [4] (setting [16]) it was 0.35; in assay [5] (setting [16]), 1.52; in assay [6] (setting [17]), 0.53; in assay [7] (setting [17]), 0.23. In addition, in [8] (setting [17]), the “LN1/LN2 ratio (Kd LN1/Kd LN2)” value was found to be 2.97. For the same compound, the Binding ability entry in [2] is listed as “lose its binding ability”. For the same compound, the “LN1/LN2 ratio, previous study” value is given as 0.79 in [9], 0.65 ^5 in assay [10] and 2.7 in assay [11] (LN1 versus LN2). In addition, the LN1/LN2 binding preference entry in [11] and in assay [12] was “prominent LN1-preferred binding activity” in each case.
As for `CC(=O)N[C@H]1[C@H](O[C@H]2[C@@H](O)[C@@H](CO)O[C@@H](O[C@H]3[C@H](O)[C@@H](O)C(O)O[C@@H]3CO)[C@@H]2O)O[C@H](CO)[C@@H](O[C@@H]2O[C@H](CO)[C@H](O)[C@H](O)[C@H]2O)[C@@H]1O` (mixture of isomers) [Lacto-N-neotetraose (LNnT), Lacto-N-neotetraose], the “Decrease of hGal1 binding” value in assay [13] is on record as 3 fold.
On to `CC(=O)N[C@@H]1[C@@H](O)[C@H](O[C@@H]2O[C@H](CO)[C@H](O)[C@H](O)[C@H]2O)[C@@H](CO)O[C@H]1O` [LN2, Galβ1-4GlcNAc], for which, in assay [1], the “Reduction of binding affinity of hGal3-E165A” value came to 8.5 fold. Further, the Kd was 280 µM in [1] (hGal3-E165A); 150 µM in assay [3]; ~33 µM and 33 µM in assay [4]; ~410 µM and 410 µM in assay [5]; 3.59 µM in assay [6]; 0.33 µM in assay [7]. In addition, the Kd in assay [8] was 19.7 µM. Besides, the Binding ability result in [2] was “lose its binding ability”.
For `CC(=O)N[C@H]1[C@H]([C@H](O)[C@H](O)CO)O[C@@](O[C@H]2[C@@H](O)[C@@H](CO)O[C@@H](O[C@H]3[C@H](O)[C@@H](NC(C)=O)C(O)O[C@@H]3CO)[C@@H]2O)(C(=O)O)C[C@@H]1O` (stereo partly drawn) [α3-SiaLacNAc], the “Increase of hGal1 binding” value in [13] was 10 fold.
Consider `CC(=O)N[C@H]1C(O)O[C@H](CO)[C@H](O)[C@@H]1O[C@@H]1O[C@H](CO)[C@H](O)[C@H](O)[C@H]1O` (stereo partly shown) [TF antigen, Galβ1-3GalNAc], for which the “Binding with TF antigen” value in assay [14] is reported as “binds”; in assay [15], “not”.

These data come from article PMC4422656, “Structural Basis Underlying the Binding Preference of Human Galectins-1, -3 and -7 for Galβ1-3/4GlcNAc” (PLoS ONE, 2015).
